Legend:
in vitro [1] = settings: rat, liver microsomes
Cytochrome P450 3A4 = Cytochrome P450 3A4 (Homo sapiens, UniProt P08684); assay: Inhibition of CYP3A4; type: ADME
Cytochrome P450 2D6 = Cytochrome P450 2D6 (Homo sapiens, UniProt P10635); assay: Inhibition of CYP2D6; type: ADME
Cytochrome P450 2C9 = Cytochrome P450 2C9 (Homo sapiens, UniProt P11712); assay: Inhibition of CYP2C9; type: ADME
in vitro [2] = settings: rat, hepatocytes
Description: Metabolic stability in rat hepatocytes assessed as hepatic clearance

[3] = biological target: T1, 11-beta-hydroxysteroid dehydrogenase type 2 (Homo sapiens, UniProt P80365); assay: Inhibition of 11betaHSD2
T1 sequence (P80365 whole entry): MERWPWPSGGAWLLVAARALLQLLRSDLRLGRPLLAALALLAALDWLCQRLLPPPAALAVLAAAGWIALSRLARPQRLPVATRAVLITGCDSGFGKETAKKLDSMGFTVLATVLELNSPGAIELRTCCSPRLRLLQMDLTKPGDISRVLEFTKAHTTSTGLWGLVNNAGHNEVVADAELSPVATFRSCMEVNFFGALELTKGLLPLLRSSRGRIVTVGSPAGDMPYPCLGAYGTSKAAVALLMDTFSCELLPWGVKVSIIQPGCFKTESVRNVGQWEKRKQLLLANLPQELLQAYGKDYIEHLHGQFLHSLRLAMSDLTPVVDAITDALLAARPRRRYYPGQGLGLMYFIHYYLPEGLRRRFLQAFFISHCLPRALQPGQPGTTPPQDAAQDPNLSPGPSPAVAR

[4] = biological target: T2, 3 beta-hydroxysteroid dehydrogenase/Delta 5-->4-isomerase type 2 (Homo sapiens, UniProt P26439); assay: Inhibition of 3betaHSD2
T2 sequence (P26439 whole entry): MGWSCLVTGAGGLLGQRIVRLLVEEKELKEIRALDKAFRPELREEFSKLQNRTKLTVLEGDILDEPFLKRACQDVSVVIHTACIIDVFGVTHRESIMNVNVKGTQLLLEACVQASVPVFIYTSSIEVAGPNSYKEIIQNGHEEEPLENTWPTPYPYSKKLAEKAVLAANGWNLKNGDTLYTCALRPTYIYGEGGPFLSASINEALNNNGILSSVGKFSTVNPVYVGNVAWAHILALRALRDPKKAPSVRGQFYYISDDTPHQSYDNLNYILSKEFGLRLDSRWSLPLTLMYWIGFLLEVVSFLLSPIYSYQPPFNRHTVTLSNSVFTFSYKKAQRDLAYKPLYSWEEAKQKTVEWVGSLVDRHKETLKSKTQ

[5] = biological target: T3, 11-beta-hydroxysteroid dehydrogenase 1 (Homo sapiens, UniProt P28845); assay: Inhibition of recombinant 11betaHSD1 expressed in CHO cells assessed as [3H]-cortisone to [3H]-cortisol by microscintillation plate reader; type: cell-based
T3 sequence (P28845 whole entry): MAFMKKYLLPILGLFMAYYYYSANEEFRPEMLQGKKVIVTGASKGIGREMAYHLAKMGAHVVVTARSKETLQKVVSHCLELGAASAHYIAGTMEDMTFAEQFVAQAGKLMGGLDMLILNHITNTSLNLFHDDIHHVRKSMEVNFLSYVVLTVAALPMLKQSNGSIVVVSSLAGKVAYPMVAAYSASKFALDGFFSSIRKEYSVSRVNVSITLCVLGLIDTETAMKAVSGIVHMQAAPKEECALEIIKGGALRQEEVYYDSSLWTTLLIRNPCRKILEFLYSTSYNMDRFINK

[6] = biological target: T3, 11-beta-hydroxysteroid dehydrogenase 1; assay: Inhibition of 11betaHSD1 in human platelet assessed as [3H]-cortisone to [3H]-cortisol by microscintillation plate reader
Rattus norvegicus = assay: Volume of distribution in rat at 1 umol/kg, iv and 5 umol/kg, po; settings: in vivo
[7] = Mean residence time in rat at 1 umol/kg, iv and 5 umol/kg, po; settings: in vivo
[8] = Clearance in rat at 1 umol/kg, iv and 5 umol/kg, po; settings: in vivo
[9] = AUC in rat at 1 umol/kg, iv and 5 umol/kg, po; settings: plasma
[10] = biological target: 17-beta-hydroxysteroid dehydrogenase type 1 (Homo sapiens) (UniProt P14061); assay: Inhibition of 17betaHSD1
Sequence of 17-beta-hydroxysteroid dehydrogenase type 1 (Homo sapiens) (P14061 whole entry, looked up): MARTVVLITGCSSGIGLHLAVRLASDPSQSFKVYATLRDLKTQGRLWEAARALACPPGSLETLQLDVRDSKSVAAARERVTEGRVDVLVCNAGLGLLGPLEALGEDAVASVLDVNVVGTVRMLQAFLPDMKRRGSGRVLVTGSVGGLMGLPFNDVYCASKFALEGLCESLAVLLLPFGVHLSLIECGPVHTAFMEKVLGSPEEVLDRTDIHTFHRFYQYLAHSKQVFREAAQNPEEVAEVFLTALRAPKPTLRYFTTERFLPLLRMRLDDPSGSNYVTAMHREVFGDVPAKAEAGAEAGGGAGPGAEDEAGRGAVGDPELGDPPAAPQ

[11] = Oral bioavailability in rat at 1 umol/kg, iv and 5 umol/kg, po; settings: in vivo
[12] = biological target: T3, 11-beta-hydroxysteroid dehydrogenase 1; assay: Inhibition of recombinant 11betaHSD1 expressed in CHO cells assessed as [3H]-cortisone to [3H]-cortisol by microscintillation plate reader in presence of plasma; type: cell-based
Glucocorticoid receptor = biological target: T4, Glucocorticoid receptor (Homo sapiens, UniProt P04150); assay: Activity against GR
T4 sequence (P04150 whole entry): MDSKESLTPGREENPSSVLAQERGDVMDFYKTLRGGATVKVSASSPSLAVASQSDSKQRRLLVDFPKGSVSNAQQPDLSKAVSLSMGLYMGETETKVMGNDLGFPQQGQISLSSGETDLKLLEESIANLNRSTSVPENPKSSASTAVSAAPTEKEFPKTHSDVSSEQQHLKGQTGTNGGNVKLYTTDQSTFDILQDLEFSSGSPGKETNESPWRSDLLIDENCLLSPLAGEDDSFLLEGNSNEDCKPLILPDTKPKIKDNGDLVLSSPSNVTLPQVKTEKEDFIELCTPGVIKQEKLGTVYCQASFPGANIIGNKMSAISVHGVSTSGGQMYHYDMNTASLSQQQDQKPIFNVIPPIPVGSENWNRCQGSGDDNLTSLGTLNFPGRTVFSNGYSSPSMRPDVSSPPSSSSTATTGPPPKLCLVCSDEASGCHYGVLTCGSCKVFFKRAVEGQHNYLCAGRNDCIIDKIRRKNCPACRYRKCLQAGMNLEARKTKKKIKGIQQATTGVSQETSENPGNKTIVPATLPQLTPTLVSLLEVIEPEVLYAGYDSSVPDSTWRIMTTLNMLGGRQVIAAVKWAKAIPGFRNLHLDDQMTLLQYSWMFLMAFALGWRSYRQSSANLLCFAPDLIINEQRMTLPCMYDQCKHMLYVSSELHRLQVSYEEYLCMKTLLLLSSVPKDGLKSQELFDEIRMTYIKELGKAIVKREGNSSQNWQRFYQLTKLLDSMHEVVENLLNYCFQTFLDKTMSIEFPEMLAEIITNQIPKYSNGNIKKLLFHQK

Bile acid receptor = biological target: T5, Bile acid receptor (Homo sapiens, UniProt Q96RI1); assay: Activity against FXR
T5 sequence (Q96RI1 whole entry): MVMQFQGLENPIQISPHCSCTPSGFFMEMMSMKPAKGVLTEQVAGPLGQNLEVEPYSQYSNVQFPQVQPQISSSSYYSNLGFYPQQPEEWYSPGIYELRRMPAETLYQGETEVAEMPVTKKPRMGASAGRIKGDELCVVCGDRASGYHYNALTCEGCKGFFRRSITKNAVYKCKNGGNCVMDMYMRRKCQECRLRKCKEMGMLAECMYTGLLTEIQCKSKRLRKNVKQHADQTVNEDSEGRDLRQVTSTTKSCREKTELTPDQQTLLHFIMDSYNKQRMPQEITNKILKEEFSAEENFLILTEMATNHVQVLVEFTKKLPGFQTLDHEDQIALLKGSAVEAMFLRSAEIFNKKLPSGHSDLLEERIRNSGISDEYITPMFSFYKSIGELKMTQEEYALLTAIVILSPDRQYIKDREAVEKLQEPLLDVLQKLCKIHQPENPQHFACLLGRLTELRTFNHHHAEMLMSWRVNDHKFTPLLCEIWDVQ

Sequence of Cytochrome P450 3A4 (P08684 whole entry): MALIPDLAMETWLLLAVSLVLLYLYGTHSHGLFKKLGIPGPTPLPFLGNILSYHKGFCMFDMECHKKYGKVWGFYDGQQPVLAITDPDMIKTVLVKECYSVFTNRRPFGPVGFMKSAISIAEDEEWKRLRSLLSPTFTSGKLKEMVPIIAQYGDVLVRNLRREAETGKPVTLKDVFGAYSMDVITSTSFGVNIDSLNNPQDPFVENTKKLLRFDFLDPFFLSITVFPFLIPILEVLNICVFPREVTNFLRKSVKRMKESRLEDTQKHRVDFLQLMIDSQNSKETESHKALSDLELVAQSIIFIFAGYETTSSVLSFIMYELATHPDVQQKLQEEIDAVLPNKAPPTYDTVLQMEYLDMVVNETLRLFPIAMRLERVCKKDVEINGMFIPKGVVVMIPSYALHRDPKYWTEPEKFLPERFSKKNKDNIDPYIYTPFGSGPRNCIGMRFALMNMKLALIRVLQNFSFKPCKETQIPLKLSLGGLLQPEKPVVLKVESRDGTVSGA
Sequence of Cytochrome P450 2D6 (P10635 whole entry): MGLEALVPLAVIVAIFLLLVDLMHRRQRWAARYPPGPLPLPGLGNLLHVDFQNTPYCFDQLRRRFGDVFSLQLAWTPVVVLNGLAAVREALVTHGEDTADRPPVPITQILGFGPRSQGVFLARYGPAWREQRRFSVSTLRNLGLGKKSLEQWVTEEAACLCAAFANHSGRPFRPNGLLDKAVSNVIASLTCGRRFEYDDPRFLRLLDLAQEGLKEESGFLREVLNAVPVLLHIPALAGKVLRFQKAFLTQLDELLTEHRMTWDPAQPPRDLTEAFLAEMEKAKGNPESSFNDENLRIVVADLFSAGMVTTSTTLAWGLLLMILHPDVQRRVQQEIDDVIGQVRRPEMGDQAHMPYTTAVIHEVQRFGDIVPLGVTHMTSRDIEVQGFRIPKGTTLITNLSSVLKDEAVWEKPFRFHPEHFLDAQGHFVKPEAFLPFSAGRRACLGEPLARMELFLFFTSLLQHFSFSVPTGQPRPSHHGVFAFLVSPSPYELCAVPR
Sequence of Cytochrome P450 2C9 (P11712 whole entry): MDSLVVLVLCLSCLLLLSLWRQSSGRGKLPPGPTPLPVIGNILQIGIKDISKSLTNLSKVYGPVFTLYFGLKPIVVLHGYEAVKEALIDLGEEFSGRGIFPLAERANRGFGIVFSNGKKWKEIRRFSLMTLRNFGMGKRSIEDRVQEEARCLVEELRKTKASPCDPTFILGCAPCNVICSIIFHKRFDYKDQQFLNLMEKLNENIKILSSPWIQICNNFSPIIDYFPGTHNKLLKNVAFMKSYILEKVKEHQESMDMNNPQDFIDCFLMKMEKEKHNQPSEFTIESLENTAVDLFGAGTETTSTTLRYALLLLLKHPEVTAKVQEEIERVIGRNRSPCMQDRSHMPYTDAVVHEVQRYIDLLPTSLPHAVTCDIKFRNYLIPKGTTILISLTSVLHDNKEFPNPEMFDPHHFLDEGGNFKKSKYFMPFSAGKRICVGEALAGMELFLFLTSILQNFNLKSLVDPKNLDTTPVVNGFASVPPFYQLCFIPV

Row | Compound | half-life (in vitro [1]) [min] | IC50 (Cytochrome P450 3A4) [µM] | IC50 (Cytochrome P450 2D6) [µM] | IC50 (Cytochrome P450 2C9) [µM] | IC50 [5] [µM] | IC50 [6] [µM] | other results
1 | NC(=O)[C@]12CC3CC(C1)[C@@H](OC(=O)N1CC[C@H](Nc4ccc(C(F)(F)F)cn4)C1)C(C3)C2 | > 60 | 10.3 | 11.6 | 2.4 | – | – | –
2 | N#Cc1ccc(N[C@H]2CCN(C(=O)O[C@H]3C4CC5CC3C[C@](C(N)=O)(C5)C4)C2)nc1 | 25 | 26.6 | 16.6 | 20 | 0.0017 | 0.0052 | –
3 | CC(C)(C)OC(=O)N[C@@H]1CCN(C(=O)OC2C3CC4CC(C3)CC2C4)C1 (some centres undefined) | 2 | > 30 | > 30 | 11.4 | – | – | –
4 | CC(C)(C)OC(=O)N[C@@H]1CCN(C(=O)O[C@H]2C3CC4CC2C[C@](C(N)=O)(C4)C3)C1 | 30 | > 30 | > 30 | > 30 | 0.0034 | 0.0075 | EC50 (Glucocorticoid receptor): > 10 µM; EC50 (Bile acid receptor): > 10 µM
5 | CC(C)(C)OC(=O)N[C@H]1CCN(C(=O)O[C@H]2C3CC4CC2C[C@](C(N)=O)(C4)C3)C1 | – | – | – | – | 0.0044 | 0.0176 | –
6 | NC(=O)[C@]12CC3CC(C1)[C@@H](OC(=O)N1CC[C@@H](Nc4ncccc4C(F)(F)F)C1)C(C3)C2 | 30 | 3.3 | – | 9.4 | – | – | –
7 | NC(=O)[C@]12CC3CC(C1)[C@@H](OC(=O)N1CC[C@@H](Nc4ccc(C(F)(F)F)cn4)C1)C(C3)C2 | 47 | 7.2 | 11.6 | 4.1 | – | – | –
8 | NC(=O)[C@]12CC3CC(C1)[C@H](OC(=O)N1CC[C@H](Nc4ncccc4C(F)(F)F)C1)C(C3)C2 | 11 | 8.5 | > 30 | 8 | – | – | –

Second part, led by results:

Row | half-life (in vitro [1]) [min] | IC50 (Cytochrome P450 3A4) [µM] | IC50 (Cytochrome P450 2D6) [µM] | IC50 (Cytochrome P450 2C9) [µM] | IC50 [5] [µM] | IC50 [6] [µM] | Compound | other results
9 | 2 | – | – | – | – | – | O=C(OC1C2CC3CC(C2)CC1C3)N1CCCCC1 (centres undefined) | –
10 | > 60 | 17.1 | > 30 | > 30 | 0.00087 | 0.0004 | N#Cc1cccnc1N[C@@H]1CCN(C(=O)O[C@H]2C3CC4CC2C[C@](C(N)=O)(C4)C3)C1 | CLhep predicted (in vitro [2]): 41 mL/min/kg; IC50 [3]: 7.35 µM; IC50 [4]: > 10 µM; Vd (Rattus norvegicus): 0.7 L/kg; MRT [7]: 18 min; clearance [8]: 42 mL/min/kg; AUC [9]: 0.398 µM·h; IC50 [10]: > 10 µM; bioavailability [11]: 42%; IC50 [12]: 0.0024 µM
11 | 46 | 14.2 | 25 | 23.1 | 0.0015 | 0.0027 | N#Cc1ccc(N[C@@H]2CCN(C(=O)O[C@H]3C4CC5CC3C[C@](C(N)=O)(C5)C4)C2)nc1 | CLhep predicted (in vitro [2]): 33 mL/min/kg; IC50 [3]: 8.65 µM; IC50 [4]: > 10 µM; Vd (Rattus norvegicus): 2.2 L/kg; MRT [7]: 30 min; clearance [8]: 80 mL/min/kg; AUC [9]: 0.209 µM·h; IC50 [10]: > 10 µM; bioavailability [11]: 27%; IC50 [12]: 0.0032 µM
12 | 25 | 18.6 | > 30 | > 30 | 0.0026 | 0.0076 | N#Cc1cccnc1N[C@H]1CCN(C(=O)O[C@H]2C3CC4CC2C[C@](C(N)=O)(C4)C3)C1 | –
13 | – | – | – | – | 0.068 | – | CC(C)(C)CC(=O)N[C@@H]1CCN(C(=O)OC2C3CC4CC(C3)CC2C4)C1 (some centres undefined) | –
14 | – | – | – | – | 0.098 | > 0.1 | CC(C)(C)OC(=O)N[C@@H]1CCN(C(=O)O[C@H]2C3CC4CC2C[C@](C(C)(C)O)(C4)C3)C1 | –
15 | – | – | – | – | 0.0207 | > 0.1 | Cc1cc(N[C@@H]2CCN(C(=O)O[C@H]3C4CC5CC3C[C@](C(N)=O)(C5)C4)C2)nc(C)n1 | –
16 | – | – | – | – | 0.0213 | > 0.1 | NC(=O)[C@]12CC3CC(C1)[C@@H](OC(=O)N1CC[C@@H](Nc4nnc(C(F)(F)F)s4)C1)C(C3)C2 | –
17 | 7 | 4.8 | 5.9 | 2.4 | – | – | NC(=O)[C@]12CC3CC(C1)[C@@H](OC(=O)N1CC[C@@H](Nc4cccc(C(F)(F)F)n4)C1)C(C3)C2 | –
18 | 2 | > 30 | > 30 | 22 | – | – | OC1C2CC3CC(C2)CC1C3 (centres undefined) [ADAMANTAN-2-OL] | –
